Values after ≈ are worked out from the molar mass of the structure shown.
Key:
L1210 = test: Cytotoxicity against mouse L1210 cells assessed as reduction in cell number after 48 hrs by cell counting assay; type: functional, cell-based; conditions: L1210, 48 h
CCRF-CEM = test: Cytotoxicity against human CCRF-CEM cells assessed as reduction in cell number after 72 hrs by cell counting assay; type: functional, cell-based
HeLa = test: Cytotoxicity against human HeLa cells assessed as reduction in cell number after 72 hrs by cell counting assay; type: functional, cell-based
Pseudomonas aeruginosa = test: Antibacterial activity against Pseudomonas aeruginosa ATCC 27853 assessed as growth inhibition after 16 to 20 hrs by microbroth dilution method; type: functional
Escherichia coli = test: Antibacterial activity against Escherichia coli ATCC 25922 assessed as growth inhibition after 16 to 20 hrs by microbroth dilution method; type: functional
Bacillus spizizenii = test: Antibacterial activity against Bacillus subtilis ATCC 6633 assessed as growth inhibition after 16 to 20 hrs by microbroth dilution method; type: functional
Enterococcus faecalis = test: Antibacterial activity against vancomycin-resistant Enterococcus faecalis ATCC 51299 assessed as growth inhibition after 16 to 20 hrs by microbroth dilution method; type: functional
Staphylococcus aureus = test: Antibacterial activity against methicillin-resistant Staphylococcus aureus subsp. aureus ATCC 43300 assessed as growth inhibition after 16 to 20 hrs by microbroth dilution method; type: functional

Row | SMILES | IC50 (L1210) [µM] | IC50 (CCRF-CEM) [µM] | IC50 (HeLa) [µM] | MIC95 (Pseudomonas aeruginosa) [mg/L] | MIC95 (Escherichia coli) [mg/L] | MIC95 (Bacillus spizizenii) [mg/L] | MIC95 (Enterococcus faecalis) [mg/L] | MIC95 (Staphylococcus aureus) [mg/L]
1 | COc1nc(OC)c2scc(Br)c2n1 | > 250 | ≥ 250 | 203 | – | – | – | – | –
2 | CN(C)[C@@H]1C(O)=C(C(N)=O)C(=O)[C@@]2(O)C(O)=C3C(=O)c4c(O)cccc4[C@@](C)(O)[C@H]3C[C@@H]12 [TETRACYCLINE] | – | – | – | 50 (≈ 113 µM) | 10 (≈ 22.5 µM) | 10 (≈ 22.5 µM) | 10 (≈ 22.5 µM) | 10 (≈ 22.5 µM)
3 | O=c1[nH]c(=O)c2scc([C@H]3C[C@H](O)[C@@H](CO)O3)c2[nH]1 | > 250 | > 250 | > 250 | – | – | – | – | –
4 | COc1nc(OC)c2scc([C@H]3C[C@H](OC(C)=O)[C@@H](COC(C)=O)O3)c2n1 | > 250 | > 250 | > 250 | – | – | – | – | –
5 | Nc1nc(Cl)nc2ccsc12 | > 250 | > 250 | > 250 | – | – | – | – | –
6 | Clc1nc(-n2cncn2)c2scc(Br)c2n1 | 157 | 84 | 116 | – | – | – | – | –
7 | O=c1[nH]c(=O)c2sccc2[nH]1 | > 250 | > 250 | > 250 | – | – | – | – | –
8 | O=c1[nH]cc(F)c(=O)[nH]1 [FLUOROURACIL] | 0.33 | – | – | – | – | – | – | –
9 | Nc1nc(Cl)nc2c(Br)csc12 | 150 | 109 | 96 | – | – | – | – | –

Reference: ChEMBL document CHEMBL3232736, “Antiproliferative activities of halogenated thieno[3,2-d]pyrimidines” (Bioorg Med Chem, 2014)
